# According to US20220089568A1 (Janssen Biotech, Inc., priority 2019, published 2022):
# Legend:
# human DHODH = target: T1, human DHODH (Homo sapiens, UniProt Q02127); test: DHODH Enzymatic Assay; assay type: biochemical; conditions: purified human DHODH; DCIP absorbance, end-point mode
# T1 construct: purchased Proteros PR-0044
# How it was run: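 Purified human DHODH activity read as absorbance of DCIP, the terminal electron acceptor, in […] pH 7.5, 150 mM NaCl, 0.5 mM EDTA, 0.1% Triton X-100. Reaction started with a substrate mix of 20 mM DHO, 5 mM CoQ6 and 1 mM DCIP in assay buffer.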
# MOLM-13 cells = test: MOLM-13 Cellular Assay; assay type: cell-based; conditions: Homo sapiens, 72 hours exposure, cell viability by CellTiter-Glo
# Description: The day prior to assay set-up, cells were pelleted, resuspended in fresh media, counted, and cells were plated at 0.4×10^6 cell/mL in a T150 flask. […] Cells were exposed to different concentrations of test compounds at 37° C., 5% CO2 for 72 hours immediately after seeding.
# T1 sequence (Q02127 whole entry): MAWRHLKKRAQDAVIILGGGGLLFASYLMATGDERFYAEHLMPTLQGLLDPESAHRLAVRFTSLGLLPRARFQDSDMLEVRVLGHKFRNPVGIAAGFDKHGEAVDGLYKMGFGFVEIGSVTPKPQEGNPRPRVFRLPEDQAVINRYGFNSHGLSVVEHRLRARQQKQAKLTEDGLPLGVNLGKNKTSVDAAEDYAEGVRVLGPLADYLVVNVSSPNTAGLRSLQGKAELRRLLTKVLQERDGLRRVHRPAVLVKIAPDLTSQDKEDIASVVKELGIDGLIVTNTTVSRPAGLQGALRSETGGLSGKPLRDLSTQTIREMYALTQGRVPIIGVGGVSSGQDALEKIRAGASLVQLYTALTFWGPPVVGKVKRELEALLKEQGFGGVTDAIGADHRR
EC50 (human DHODH) [nM],EC50 (MOLM-13 cells) [nM],Compound
18.1,1.5,"Cc1[nH]nc(Cl)c1NC(=O)c1cc(F)c(-n2nc(CF)n(CCCO)c2=O)nc1O[C@@H](C)C(F)(F)F [Example 107, N-(3-Chloro-5-methyl-1H-pyrazol-4-yl)-5-fluoro-6-[3-(fluoromethyl)-4-(3-hydroxypropyl)-5-oxo-1,2,4-triazol-1-yl]-2-[(1S)-2,2,2-trifluoro-1-methyl-ethoxy]pyridine-3-carboxamide]"
0.87,0.886,"CCn1c(CO)nn(-c2nc(O[C@@H](C)C(F)(F)F)c(C(=O)Nc3c(C)ccnc3OC)cc2F)c1=O [Example 68, (S)-6-(4-Ethyl-3-(hydroxymethyl)-5-oxo-4,5-dihydro-1H-1,2,4-triazol-1-yl)-5-fluoro-N-(2-methoxy-4-methylpyridin-3-yl)-2-((1,1,1-trifluoropropan-2-yl)oxy)nicotinamide]"
1.2,1.8,"CCn1c(CO)nn(-c2nc(O[C@@H](C)C(F)(F)F)c(C(=O)Nc3nc(OC)ccc3Cl)cc2F)c1=O [Example 21, (S)-N-(3-chloro-6-methoxypyridin-2-yl)-6-(4-ethyl-3-(hydroxymethyl)-5-oxo-4,5-dihydro-1H-1,2,4-triazol-1-yl)-5-fluoro-2-((1,1,1-trifluoropropan-2-yl)oxy)nicotinamide]"
0.367,0.282,"CCn1c(CO)nn(-c2nc(O[C@@H](C)C(F)(F)F)c(C(=O)Nc3c(Cl)cnc(OC)c3C)cc2F)c1=O [Example 110, N-(5-Chloro-2-methoxy-3-methyl-4-pyridyl)-6-[4-ethyl-3-(hydroxymethyl)-5-oxo-1,2,4-triazol-1-yl]-5-fluoro-2-[(1S)-2,2,2-trifluoro-1-methyl-ethoxy]pyridine-3-carboxamide]"
